Residue numbers refer to the chain shown, from its start. “And” between values parts separate entries of the source, which are not always exact repeats. Identical values can stand only once. Like-named read-outs stand apart in the source and are kept apart here.
How the values were obtained:
[1] = molecular target: T1, MOR (Homo sapiens, UniProt P35372); assay: BRET assay MOR and Nb6; assay type: cell-based; conditions: Log [Drug]
T1 construct: expressed in transfected cells; host or cells: HEK 293T (by the general BRET protocol; not repeated for MOR)

[2] = molecular target: T2, KOR (Homo sapiens, UniProt P41145); assay: Competition binding with 3H-JDTic in the absence or presence of 5 µM Nb6 or Nb39
[3] = tested on: ETA; assay type: cell-based, human; conditions: ETA-KOR
[4] = tested on: ETA; assay type: cell-based, human; conditions: ETA-KOR, Log [Drug]
[5] = molecular target: T2, KOR; assay: Real-time BRET kinetics of KOR–Nb6; assay type: cell-based; conditions: for BRET, KOR + Nb6: SalA / Buffer
[6] = molecular target: T2, KOR; assay: Real-time BRET kinetics of KOR–Nb39; assay type: cell-based; conditions: SalA / Buffer
[7] = molecular target: T3, human KOR containing C-terminal Renilla luciferase (RLuc8) (human, UniProt P41145); assay: FRET or BRET; live HEK 293T cells co-transfected with receptor-RLuc and nanobody-mVenus (1:3); net BRET ratio without agonist (no drug, or with the antagonist JDTic); 20 mM HEPES, 1X HBSS, pH 7.4; conditions: partners not purified
T3 construct: kappa opioid receptor, human, wild type; also called KOR-Rluc; kappa opioid receptor; source: HEK 293T, co-transfected, in live cells; not shown: RLuc8, C-terminal, kept

[8] = molecular target: T3, human KOR containing C-terminal Renilla …; assay: FRET or BRET; kinetic BRET in HEK 293T cells co-expressing KOR-Rluc and Nb6-mVenus or Nb39-mVenus; 10 µM Sal A, then 10 µM JDTic added at the indicated times; t1/2 from one phase exponential decay; conditions: partners not purified

## C[C@@H](NC(=O)[C@@H](N)Cc1ccc(O)cc1)C(=O)NCC(=O)N(C)[C@@H](Cc1ccccc1)C(=O)NCCO [DAMGO]
[1]; M -6
  response (Figure S9b): 34.0976 and 31.8296 and 33.2096
[1]; M -7
  response (Figure S9b): 78.9066 and 72.2446 and 76.3636
[1]; M -8
  response (Figure S9b): 84.8057 and 83.6246 and 84.5411
[1]; M -9
  response (Figure S9b): 92.3096 and 93.4924
[1]; M -10
  response (Figure S9b): 90.9034 and 89.2915 and 90.6654
[1]; M -11
  response (Figure S9b): 93.7193 and 94.9714 and 95.2973
[1]; M -12
  response (Figure S9b): 99.6463 and 100.354

## CC[C@H](C)[C@H](NC(=O)[C@H](CCCNC(=N)N)NC(=O)[C@H](CCCNC(=N)N)NC(=O)[C@H](CC(C)C)NC(=O)[C@H](Cc1ccccc1)NC(=O)CNC(=O)CNC(=O)[C@@H](N)Cc1ccc(O)cc1)C(=O)N[C@@H](CCCNC(=N)N)C(=O)N1CCC[C@H]1C(=O)N[C@@H](CCCCN)C(=O)N[C@@H](CC(C)C)C(=O)N[C@@H](CCCCN)C(=O)O [Dynorphin A, 1-13, Dynorphin A (1–13)]
[2]
  Ki: 2.43 ± 0.2 nM

## CC[C@H](C)[C@H](NC(=O)[C@H](CC(=O)O)NC(=O)[C@H](CC(C)C)NC(=O)[C@H](Cc1c[nH]cn1)NC(=O)[C@@H]1CSSC[C@H](N)C(=O)N[C@@H](CO)C(=O)N[C@H]2CSSC[C@H](NC(=O)[C@H](CCC(=O)O)NC(=O)[C@H](CCCCN)NC(=O)[C@H](CC(=O)O)NC(=O)[C@H](CCSC)NC(=O)[C@H](CC(C)C)NC(=O)[C@H](CO)NC(=O)[C@H](CO)NC2=O)C(=O)N[C@@H](C(C)C)C(=O)N[C@@H](Cc2ccc(O)cc2)C(=O)N[C@@H](Cc2ccccc2)C(=O)N1)C(=O)N[C@H](C(=O)N[C@@H](Cc1c[nH]c2ccccc12)C(=O)O)[C@@H](C)CC [Endothelin-1]
[3]; Log [Endothelin-1,] M = -5
  Net BRET receptor and Nb6, source data Figure 5b: 4.499 and 7.7967 and 6.394
[3]; Log [Endothelin-1,] M = -6
  Net BRET receptor and Nb6, source data Figure 5b: 5.268 and 6.925 and 6.885
[3]; Log [Endothelin-1,] M = -7
  Net BRET receptor and Nb6, source data Figure 5b: 45.5139 and 37.9048 and 42.0353
[3]; Log [Endothelin-1,] M = -8
  Net BRET receptor and Nb6, source data Figure 5b: 94.8754 and 92.9034 and 94.0384
[3]; Log [Endothelin-1,] M = -9
  Net BRET receptor and Nb6, source data Figure 5b: 99.5856 and 100.414 and 100.568
[3]; Log [Endothelin-1,] M = -10
  Net BRET receptor and Nb6, source data Figure 5b: 98.7901 and 95.8099 and 98.252
[3]; Log [Endothelin-1,] M = -11
  Net BRET receptor and Nb6, source data Figure 5b: 101.512 and 91.9128 and 97.2504
[4]; M = -5.5
  Net BRET G protein activation, source data Figure 5c: 8.126 and 14.2188 and 11.7402
[4]; M = -6.5
  Net BRET G protein activation, source data Figure 5c: 13.3731 and 8.584 and 11.2246
[4]; M = -7.5
  Net BRET G protein activation, source data Figure 5c: 27.9656 and 34.3494 and 31.9455
[4]; M = -8.5
  Net BRET G protein activation, source data Figure 5c: 53.981 and 48.3799 and 51.5065
[4]; M = -9.5
  Net BRET G protein activation, source data Figure 5c: 73.7875 and 86.5149 and 80.3002
[4]; M = -10.5
  Net BRET G protein activation, source data Figure 5c: 94.2005 and 91.2115 and 93.274
[4]; M = -11.5
  Net BRET G protein activation, source data Figure 5c: 104.258 and 97.1609 and 101.662
[4]; M = -12.5
  Net BRET G protein activation, source data Figure 5c: 100.567 and 115.131

## NC(=O)c1ccc(Oc2ccc(CN3CCC[C@H]3c3cccnc3)cc2)c(F)c1 [LY2459989]
[2]
  increase of binding affinity in the presence of Nb6: ~ 6 fold
[2]; read-out: Ki ± SEM
  Ki: 3.4 ± 0.25 nM

## O=C(N[C@@H]1C=CC2[C@H]3Cc4ccc(O)c5c4[C@@]2(CCN3CC2CC2)[C@H]1O5)c1cccc(I)c1 (stereo partly drawn) [MP1104]
[2]
  effect of Nb6 on binding affinity: only slightly affected

## COC(=O)[C@@H]1C[C@H](OC(C)=O)C(=O)[C@H]2[C@@]1(C)CC[C@H]1C(=O)O[C@H](c3ccoc3)C[C@]21C [Sal A, Salvinorin A]
[5]; 10 µM Sal A added
  t1/2 of decrease in Nb6-KOR BRET: 50 ± 10 s
[5]; time 5 min
  BRET, KOR + Nb6: 1.409 and 1.4035 and 1.421 and 1.389
[5]; time 6 min
  BRET, KOR + Nb6: 1.298 and 1.281 and 1.268 and 1.228
[5]; time 7 min
  BRET, KOR + Nb6: 1.173 and 1.165 and 1.166 and 1.137
[5]; time 8 min
  BRET, KOR + Nb6: 1.122 and 1.113 and 1.12 and 1.093
[5]; time 9 min
  BRET, KOR + Nb6: 1.088 and 1.0779 and 1.094 and 1.0747
[5]; time 10 min
  BRET, KOR + Nb6: 1.082 and 1.078 and 1.0874 and 1.065
[5]; time 11 min
  BRET, KOR + Nb6: 1.074 and 1.07 and 1.083 and 1.058
[5]; time 12 min
  BRET, KOR + Nb6: 1.074 and 1.063 and 1.076 and 1.058
[5]; time 13 min
  BRET, KOR + Nb6: 1.075 and 1.061 and 1.082 and 1.064
[5]; time 14 min
  BRET, KOR + Nb6: 1.069 and 1.063 and 1.08 and 1.062
[5]; time 15 min
  BRET, KOR + Nb6: 1.083 and 1.067 and 1.08 and 1.061
[5]; time 16 min
  BRET, KOR + Nb6: 1.077 and 1.067 and 1.078 and 1.056
[5]; time 17 min
  BRET, KOR + Nb6: 1.076 and 1.07 and 1.085 and 1.064
[5]; time 18 min
  BRET, KOR + Nb6: 1.081 and 1.07 and 1.082 and 1.068
[5]; time 19 min
  BRET, KOR + Nb6: 1.086 and 1.077 and 1.091 and 1.066
[5]; time 20 min
  BRET, KOR + Nb6: 1.081 and 1.073 and 1.083 and 1.0658
[5]; time 21 min
  BRET, KOR + Nb6: 1.087 and 1.079 and 1.095 and 1.076
[5]; time 22 min
  BRET, KOR + Nb6: 1.074 (2×) and 1.079 and 1.0714
[5]; time 23 min
  BRET, KOR + Nb6: 1.088 and 1.082 and 1.074 and 1.0724
[5]; time 24 min
  BRET, KOR + Nb6: 1.091 and 1.078 and 1.081 and 1.076
[5]; time 25 min
  BRET, KOR + Nb6: 1.086 and 1.081 and 1.078 and 1.0719
[5]; time 26 min
  BRET, KOR + Nb6: 1.084 and 1.082 and 1.088 and 1.07
[5]; time 27 min
  BRET, KOR + Nb6: 1.079 and 1.0834 and 1.085 and 1.083
[5]; time 28 min
  BRET, KOR + Nb6: 1.084 and 1.076 and 1.086 (2×)
[5]; time 29 min
  BRET, KOR + Nb6: 1.0858 and 1.081 (2×) and 1.075
[6]; time 5 min
  BRET, KOR + Nb39: 0.0262 and 0.02211 and 0.02102 and 0.02289
[6]; time 6 min
  BRET, KOR + Nb39: 0.3036 and 0.3141 and 0.3188 and 0.3115
[6]; time 7 min
  BRET, KOR + Nb39: 0.3004 and 0.3137 and 0.3136 and 0.3142
[6]; time 8 min
  BRET, KOR + Nb39: 0.2978 and 0.3081 and 0.3108 and 0.3153
[6]; time 9 min
  BRET, KOR + Nb39: 0.2922 and 0.311 and 0.3085 and 0.3127
[6]; time 10 min
  BRET, KOR + Nb39: 0.2996 and 0.3174 and 0.3198
[6]; time 11 min
  BRET, KOR + Nb39: 0.2967 and 0.3155 and 0.3205
[6]; time 12 min
  BRET, KOR + Nb39: 0.298 and 0.3156 and 0.3148 and 0.3226
[6]; time 13 min
  BRET, KOR + Nb39: 0.2971 and 0.3177 and 0.3205 and 0.3168
[6]; time 14 min
  BRET, KOR + Nb39: 0.2971 and 0.3134 and 0.3132 and 0.3235
[6]; time 15 min
  BRET, KOR + Nb39: 0.2986 and 0.3191 and 0.3238 and 0.3265
[6]; time 16 min
  BRET, KOR + Nb39: 0.2964 and 0.3182 and 0.3184 and 0.324
[6]; time 17 min
  BRET, KOR + Nb39: 0.3018 and 0.3186 and 0.3227 and 0.3317
[6]; time 18 min
  BRET, KOR + Nb39: 0.3003 and 0.3158 and 0.3185 and 0.326
[6]; time 19 min
  BRET, KOR + Nb39: 0.3043 and 0.3186 and 0.3228 and 0.323
[6]; time 20 min
  BRET, KOR + Nb39: 0.2961 and 0.3231 and 0.3183 and 0.3325
[6]; time 21 min
  BRET, KOR + Nb39: 0.3008 and 0.3186 and 0.3235
[6]; time 22 min
  BRET, KOR + Nb39: 0.3025 and 0.3173 and 0.3147 and 0.3318
[6]; time 23 min
  BRET, KOR + Nb39: 0.2987 and 0.3226 and 0.3296
[6]; time 24 min
  BRET, KOR + Nb39: 0.2996 and 0.3206 and 0.3159 and 0.3334
[6]; time 25 min
  BRET, KOR + Nb39: 0.3041 and 0.3179 and 0.3117 and 0.3236
[6]; time 26 min
  BRET, KOR + Nb39: 0.2994 and 0.3089 and 0.3198 and 0.3347
[6]; time 27 min
  BRET, KOR + Nb39: 0.3042 and 0.3155 and 0.3211 and 0.3323
[6]; time 28 min
  BRET, KOR + Nb39: 0.2989 and 0.303 and 0.3151 and 0.3345
[6]; time 29 min
  BRET, KOR + Nb39: 0.2966 and 0.3193 and 0.305 and 0.3267
[6]; time 30 min
  BRET, KOR + Nb39: 0.2958 and 0.3183 and 0.3167 and 0.3297

B1: Nb6-mVenus with R102 mutated (VHH)
VHH: QVQLQESGGGLVQAGESLRLSCAASGTIFRLYDMGWYRRVSGNQRELVASITSGGSTKYGDSVKGRFTISRDNAKNTVYLQMSSLKPEDTAVYYCNAEYATGIWEELLDGWGQGTQVTVSS
notes: as the chain of m4 (PDB 6VI4) with R102 mutated; also called Nb6 R102 mutant; source: HEK 293T, co-transfected, in live cells; not shown: mVenus, C-terminal, kept
[7]
  binding result: no binding

B2: Nb6-mVenus with W106 mutated (VHH)
VHH: B1 VHH with A100R, W104A
notes: as the chain of m4 (PDB 6VI4) with W106 mutated; also called Nb6 W106 mutant; source: HEK 293T, co-transfected, in live cells; not shown: mVenus, C-terminal, kept
[7]
  binding result: no binding

B3: Nb39-mVenus (VHH)
VHH: QVQLVESGGGLVRPGGSLRLSCVDSERTSYPMGWFRRAPGKEREFVASITWSGIDPTYADSVADRFTTSRDVANNTLYLQMNSLKHEDTAVYYCAARAPVGQSSSPYDYDYWGQGTQVTVSS
notes: nanobody chain of the cited KOR-MP1104-Nb39 structure PDB 6B73; A purified Nb39 from E. coli WK6 (no mVenus) was used at 5 µM in the radioligand assays; the functional row on it uses this id; also called positive allosteric nanobody; active-state associated nanobody; source: HEK 293T, co-transfected, in live cells; not shown: mVenus, C-terminal, kept
[8]
  t1/2 of the reversal of the KOR-Nb39 association by JDTic: 107 ± 15 s
